{"source": "patent US20230228744A1", "about": "“DRY EYE DISEASE BIOMARKERS AND THEIR USE FOR TREATMENT” (Aldeyra Therapeutics, Inc., priority 2020, published 2023)", "assay_type_in_all_cases": "in vivo, human", "key": {"patients": {"tested_on": "patients", "assay": "Overall clinical safety experience of topical ocular reproxalap"}, "dry eye disease patients": {"tested_on": "dry eye disease patients", "assay": "Phase 3 clinical trial (RENEW-Part 1), VAS ocular dryness score over 12-week chronic treatment", "settings": "0.25% reproxalap, 12-week treatment, as early as one week after treatment initiation", "description": "Treatment Difference of induction-maintenance dosing, defined as the difference between the changes from baseline for the evaluated drug vs. vehicle (LS Mean Difference ±95% CI). Ocular Dryness Score co-primary endpoint assessed in pre-specified patient population having an OD4S dryness baseline score of ≥3 (N=170). […] […] Source: Reproxalap RENEW-Part 1 clinical trial results and TRANQUILITY Run-In Cohort initial results. VAS=Visual Analog Scale; OD4S=Ocular Discomfort & 4-Symptom; CAC=Conjunctival Allergen Challenge; MMRM=Mixed Effect Model Repeated Measures."}, "[1]": {"tested_on": "4-hydroxynonenal protein adducts (HNE) in tears", "assay": "Phase 2/3 (TRANQUILITY) run-in cohort, ELISA of HNE-protein adducts in tears before and after dosing", "settings": "single doses of 0.25% reproxalap, average of two doses (Day 1 first dose, Day 2 post chamber), n=9; vehicle: increase of 32 pg/mL (n=7)", "experimental": "[table] Tear RASP levels will be assessed via MMRM of change from pre to post dose on Day 1 and Day 2, with baseline (pre-dose) scores as a covariate, and dose and test article group as factors. Secondary Endpoints: • Visual analog scale eye dryness score assessed over 24 hours after first dose on Day 1, and over 90 minutes in CAE® (Key Secondary Symptom Endpoint) • Ora Calibra® Ocular Discomfort Scale assessed over 24 hours after first dose on Day 1, and over 90 minutes in CAE® • Ocular Discomfort & 4-Symptom Questionnaire assessed over 24 hours after first dose on Day 1, and before and after CAE® • Ora Calibra® Conjunctival Allergen Challenge Ocular Itching Scale assessed over 24 hours after first dose on Day 1, and before and after CAE® • Schirmer's Test change from baseline before and after the final dose on Day 1 • Change in tear RASP levels before and after Dose 1 and 2 on Day 1 and Dose 3 on Day 2. Conjunctival redness over 24 hours after first dose on Day 1. Visit 2 (Day 1, Baseline and In-Office Dosing) • Medical/Medication Update • Adverse Event Query • Visual Acuity (ETDRS) • Slit Lamp Biomicroscopy • Symptom Questionnaires • a. Ocular Discomfort & 4-Symptom Questionnaire • b. […] Ora Calibra® Conjunctival Allergen Challenge Ocular Itching Scale • Slit Lamp Biomicroscopy • Intraocular Pressure • Dilated Exam • Study Exit Data for the run-in cohort was obtained and analyzed. […]"}}}
{"smiles": "CC(C)(O)c1nc2ccc(Cl)cc2cc1N", "note": "[reproxalap, Reproxalap]", "values": [{"measurement": "most commonly reported adverse event in clinical trials", "setting": "patients; over 1,100 patients", "value": "mild instillation site irritation"}, {"measurement": "observed safety concerns", "setting": "patients; studied in over 1,100 patients", "value": "no observed safety concerns"}, {"measurement": "symptom improvements over vehicle (VAS ocular dryness score and multiple symptoms)", "setting": "dry eye disease patients", "value": "statistically significant symptom improvements"}, {"measurement": "average decline of HNE levels in tears, pre-dose to post-dose", "setting": "[1]", "value": 1018, "unit": "pg/mL"}]}
